Source: paper PMC2441954, “Phase I pharmacokinetic and pharmacodynamic study of the prenyl transferase inhibitor AZD3409 in patients with advanced cancer” (British Journal of Cancer, 2008)

Tests used:
[1] = Phase I dose escalation, toxicity (CTC v2.0) in patients with advanced solid malignancies; format: in vivo
Protocol: The study was divided into two parts. Part A was an open-label dose-escalation study to define the maximum tolerated dose (MTD). Part B was an enrichment phase in female patients having advanced breast cancer for whom there was no standard therapy available.
AZD3409 was administered continuously starting on day 1 of each cycle of 21 days. A modified Fibonacci schedule was used for dose escalation, starting from 500 mg AZD3409. […] At least three patients were treated at each dose level. The occurrence of a DLT in a patient during the first cycle led to enrolment of three additional patients. Patients with progressive disease were removed from the study and patients who were removed within the first cycle of the study for reasons other than drug-related toxicity were replaced.
Pretreatment evaluation included a complete medical history and physical examination. Measurable and evaluable disease was documented before the start of the study and during the study as a basis for the assessment of clinical activity of the treatment. Tumour response was recorded according to RECIST criteria ([Therasse et al, 2000]). Toxicity was monitored at each visit. […] DLT was defined as any of the following events during the first treatment cycle: grade 3 or 4 anaemia or thrombocytopaenia, febrile neutropaenia grade 3, or grade 4 neutropaenia, grade 3 or 4 biochemical toxicity, grade 2 (or worse) nausea and vomiting despite optimal antiemetic therapy, grade 3 or 4 diarrhoea despite optimal loperamide support, failure to take study medication for 7 days or more within the first treatment cycle due to drug-related toxicity or any CTC grade 3 or 4 nonhaematological toxicity (excluding alopaecia). The MTD was defined as the dose below the dose at which two or three of three, or two or more of six patients experienced DLT during cycle 1.

FTase = target: T1, FTase (Homo sapiens, UniProt P49356); test: FTase activity in PBMC lysates of patients (lamin B or K-Ras substrate), PK/PD Emax model; format: in vivo
T1 construct: endogenous in cells; host or cells: peripheral blood mononuclear cells (PBMCs) of treated patients, lysed
Protocol: Prior to and 2 h after intake on days 1, 2 (only predose), 8 and 22, whole-blood samples of 22.5 ml were collected in heparinised tubes for FTase activity determination in peripheral blood mononuclear cells (PBMCs). Within 30 min, the PBMC fraction was isolated using Accuspin tubes (Sigma). The cell pellet was resuspended in 100 μl lysis buffer (PBS containing 1% (v/v) Triton X-100, 0.5% (w/v) sodium deoxycholate, 0.1% (w/v) sodium dodecylsulphate and 1% (v/v) aprotinin) and stored at −70°C.
FTase activity was measured by adding 5 μl of PBMC lysate, 5 μl of lysis buffer and 10 μl of water to each well. The lysates were preincubated for 10 min prior to the addition of 20 μl of substrate solution (either lamin B or K-Ras). The reaction was initiated by the addition of 10 μl of radiolabelled farnesylpyrophosphate (fpp). The wells were incubated for 40 min at 37°C. The reaction was stopped by the addition of 100 μl of 1.5 M HCl in ethanol. The wells were stored at 4°C for 1 h and then processed using the Tomtec Harvester 96. The filter plates were dried at 37°C for 15 min, 0.35 μl MicroScint was added to each filter well and the radioactivity was counted. Each lysate was analysed in triplicate. Blanks consisted of the same reaction mixture without the substrate.
Linear mixed effects models were constructed to determine the effect of time on the enzyme activity levels. In these models, the daily dose, number of applications, time (days), measurement pre- or postdrug intake, gender and age were considered to be a fixed effect, and the patient variable was considered to be a random effect. Owing to the distribution of the response variables, square root variables were applied. Statistical analysis was performed with SAS. To determine the correlation of the dose level and the enzyme inhibition, a baseline was added to the described models.
Pharmacokinetic-pharmacodynamic correlations between the active acid metabolite and decrease in FTase activity were fitted with WinNonlin software. Only patients with a basal FTase activity that was higher than 10 pg fpp per mg protein per min were included in the model. This cutoff value was arbitrary and was chosen based on the available data (lamin B; mean: 28.0, SD: 14.2, median: 27.8, 25% percentile: 19.1 and K-Ras; mean: 29.3, SD: 17.8, median: 25.6, 25% percentile: 16.7). The decision to set a minimum baseline FTase activity implicates that the model can only be used for patients with a minimum FTase activity of 10 pg fpp per mg protein per min.

[2] = all dose levels, drug-related nonhaematological toxicity
[3] = cycle 1, 250 mg b.i.d. (part B, fed state), 3 patients
[4] = cycle 1, 750 mg b.i.d., 8 patients
[5] = cycle 1, 1250 mg b.i.d., 6 patients
[6] = cycle 1, 1500 mg b.i.d., 2 patients
[7] = cycle 1, 1750 mg b.i.d., 4 patients
[8] = cycle 1, all doses, 29 patients

In the case of CSCC[C@H](NC(=O)c1cc(NC[C@@H]2C[C@H](SC(=O)c3cccnc3)CN2)ccc1CCc1ccc(F)cc1)C(=O)OC(C)C [AZD3409], the “dose-limiting gastrointestinal toxicity (grade 3 diarrhoea, grade 3 dehydration, grade 2/3 nausea, grade 2 vomiting)” value ([1]; 1250 mg b.i.d.) is reported as “three out of six patients”, the “dose-limiting toxicity: unable to continue due to grade 3 diarrhoea and uncontrolled nausea (grade 2), respectively” value ([1]; 1500 mg b.i.d.) is reported as “two patients” and the “dose-limiting toxicity: unable to take the drug due to CTC grade 2 vomiting in spite of antiemetics” value ([1]; 1750 mg b.i.d.) is reported as “two patients”. For the same molecule, the “diarrhoea, patients reporting” value [1, 2] was 41%, the “nausea, patients reporting” value [1, 2] was 55% and the “vomiting, patients reporting” value [1, 2] was 55%. The haematological toxicity ([1]; cycle 1, 29 evaluable patients) was “No significant haematological toxicity”, the “Nausea grade 1–2, number of patients” value [1, 3] was 1 and the “Vomiting grade 1–2, number of patients” value [1, 3] was 2. For the same molecule, the “Anorexia grade 1–2, number of patients” value ([1]; cycle 1, 500 mg, 3 patients) was 1, the “Fatigue grade 1–2, number of patients” value ([1]; cycle 1, 500 mg, 3 patients) was 1 and the “Nausea grade 1–2, number of patients” value ([1]; cycle 1, 500 mg, 3 patients) was 1. For the same molecule, the “Vomiting grade 1–2, number of patients” value ([1]; cycle 1, 500 mg, 3 patients) was 1, the “Abdominal pain grade 1–2, number of patients” value [1, 4] was 1 and the “Anorexia grade 1–2, number of patients” value [1, 4] was 2. The “Diarrhoea grade 1–2, number of patients” value [1, 4] was 3, the “Fatigue grade 1–2, number of patients” value [1, 4] was 2 and the “Nausea grade 1–2, number of patients” value [1, 4] was 5. For the same molecule, the “Vomiting grade 1–2, number of patients” value [1, 4] was 4, the “Diarrhoea grade 1–2, number of patients” value ([1]; cycle 1, 1000 mg, 3 patients) was 3 and the “Nausea grade 1–2, number of patients” value ([1]; cycle 1, 1000 mg, 3 patients) was 2. The “Vomiting grade 1–2, number of patients” value ([1]; cycle 1, 1000 mg, 3 patients) was 2, the “Abdominal pain grade 1–2, number of patients” value [1, 5] was 2 and the “Anorexia grade 1–2, number of patients” value [1, 5] was 1. For the same molecule, the “Diarrhoea grade 1–2, number of patients” value [1, 5] was 2, the “Diarrhoea grade 3–4, number of patients” value [1, 5] was 1 and the “Fatigue grade 1–2, number of patients” value [1, 5] was 1. The “Nausea grade 1–2, number of patients” value [1, 5] was 3, the “Nausea grade 3–4, number of patients” value [1, 5] was 1 and the “Vomiting grade 1–2, number of patients” value [1, 5] was 3. The “Diarrhoea grade 3–4, number of patients” value [1, 6] was 1, the “Nausea grade 1–2, number of patients” value [1, 6] was 1 and the “Vomiting grade 1–2, number of patients” value [1, 6] was 1. For the same molecule, the “Anorexia grade 1–2, number of patients” value [1, 7] was 2, the “Diarrhoea grade 1–2, number of patients” value [1, 7] was 4 and the “Fatigue grade 1–2, number of patients” value [1, 7] was 1. The “Nausea grade 1–2, number of patients” value [1, 7] was 3, the “Vomiting grade 1–2, number of patients” value [1, 7] was 3 and the “Abdominal pain grade 1–2, total” value [1, 8] was 3 (10) n (%). For the same molecule, the “Anorexia grade 1–2, total” value [1, 8] was 6 (21) n (%), the “Diarrhoea grade 1–2, total” value [1, 8] was 12 (41) n (%) and the “Diarrhoea grade 3–4, total” value [1, 8] was 2 (7) n (%). For the same molecule, the “Fatigue grade 1–2, total” value [1, 8] was 5 (17) n (%), the “Nausea grade 1–2, total” value [1, 8] was 16 (55) n (%) and the “Nausea grade 3–4, total” value [1, 8] was 1 (3) n (%). For the same molecule, the “Vomiting grade 1–2, total” value [1, 8] was 16 (55) n (%), the “MTD of part A” value ([1]; patients, fasted state, continuous oral dosing) was 750 mg b.i.d and the “degree of FTase inhibition in PBMCs after intake vs prior to intake” value (FTase; each day, lamin B and K-Ras substrates, mixed effects model) was “significantly higher than prior to intake”.
With CSCC[C@H](NC(=O)c1cc(NC[C@@H]2C[C@H](S)CN2)ccc1CCc1ccc(F)cc1)C(=O)O [AZD3409 acid] the “chance to suffer from vomiting (grade 1–2) due to the medication” value ([1]; at maximal AZD3409 acid plasma concentrations up to 140 ng ml^−1, cycle 1, n=22) was “below 15%”, the “plasma concentration at which 90% of the maximal biological effect is reached” value (FTase; Emax model for lamin B) was “approximately 100 ng ml^−1” and the EC50 (FTase; Emax model, lamin B substrate, PBMC lysate, day 1, 2 h after intake, read-out: EC50 (plasma concentration at 50% of maximal FTase inhibition) (converted)) was 18.8 nM. For the same molecule, the Emax (FTase; human, Emax model, lamin B substrate, PBMC lysate, day 1, 2 h after intake, vs AZD3409 acid plasma concentration, read-out: maximal effect (Emax), maximal FTase inhibition) was 49 ± 11% and the “share of the maximally achievable FTase inhibition at mean trough concentrations” value (FTase; twice daily dosing levels, Emax model lamin B) was “at least 75%”.
